These results are taken from US8715745B2 (priority 2009, dated 2014).

Data set [1] has as its system Staphylococcus aureus, Escherichia coli, Aspergillus niger and A. flavus. The conditions noted are these: literature report, Proceedings of the National Academy of Sciences, India 1991; cited from earlier work.
The subject of the next data set is Phytophthora capsici. The experiment in a line: In vitro fungitoxicity (growth inhibition) against Phytophthora capsici in copper-minus AS and copper-plus AS medium. The format is cell-based. The conditions noted are these: for % Inhn Plus copper Predicted: 0.050 μg/mL, Colby formula. How it is done:
In vitro fungitoxicity assays against Phytophthora capsici were conducted using the asparagine-sucrose (AS) medium described in Canadian Journal of Microbiology 1961, 7, 15-25, except that copper micronutrient, normally included as CuSO4, was omitted. The medium, termed “copper-minus AS”, was prepared by dissolving 2 g asparagine, 0.43 g KH2PO4, 0.3 g K2HPO4, 0.4 mL of a 0.5 mg/mL thiamine-HCl solution and 15 g sucrose in 1 liter of deionized water and treating the solution with 0.5 g Chelex 100 resin (Bio-Rad Analytical grade, 50-100 mesh, sodium form, cat#142-2822) by stirring at room temperature for 1 h. The pH was adjusted to 6.4, then MgSO4.7H2O (100 μg/mL), FeSO4.7H2O (1 μg/mL), CaCl2 (50 μg/mL), ZnSO4.7H2O (1 μg/mL), NaMoO4.2H2O (0.2 μg/mL) and MnCl2.4H2O (0.2 μg/mL) were added and the entire medium was sterilized by filtration. “Copper-plus AS” medium was prepared by adding CuCl2.2H2O to the copper-minus AS medium at 100 μM. Test compounds were dissolved in DMSO then dilutions in copper-minus AS and copper-plus AS media were prepared as 100 μL aliquots in flat-bottomed 96-well microtiter plates.
Phytophthora capsici was grown on petri plates, 9 cm in diameter, containing 15 mL V-8 agar, pH 7.0, containing 200 mL V-8 juice, 4 g CaCO3, and 20 g agar per liter. Plates were inoculated with 7-mm plugs from a 1-week old culture, incubated at 25° C. in the dark for 3 days, and then placed under fluorescent lights for 4 days to induce sporulation. Zoospore release from sporangia was induced by adding 15 mL of sterile deionized water (which had been treated with Chelex 100 resin using 0.5 g resin per liter of water by stirring at room temperature for 1 h) to each plate, and incubating for 10 min at 25° C. followed by 20 min at 4° C. The plates were returned to 25° C. for 10 min and the aqueous suspension of released zoospores was recovered. The zoospore suspension was adjusted to 5×10^4 spores/mL by dilution into Chelex 100-treated water. Microtiter plates were inoculated with 100 μL of spore suspension and incubated at 25° C. for 48 h before assessing fungal growth by measuring light scattering in a NepheloStar plate reader. Growth inhibition was determined by comparing growth in the presence of test compound with growth in control wells lacking test compound.
Results for growth inhibition by test compounds in copper-plus AS medium (“% Inhn Plus Copper Observed”) were compared with predicted values (“% Inhn Plus Copper Predicted”) that were calculated using the formula set forth by S. R. Colby in Weeds (1967), 15, 20-22 based on results obtained for the same compounds in copper-minus AS medium (“% Inhn Minus Copper Observed”) and the inhibition attributed to copper chloride alone, as determined by comparing growth in copper-minus AS and copper-plus AS media without any test compound across experiments. Results illustrate that hydrazones and copper produce a synergistic fungitoxic effect towards Phytophthora capsici.

The next data set has as its system Ustilago maydis. As to the kind of experiment: In vitro fungitoxicity (growth inhibition) against Ustilago maydis in copper-minus and copper-plus medium. The data set is classed as cell-based. The settings on record: for % Inhn. Plus copper Predicted: 1 μg/mL, Colby formula. How it is done:
In vitro fungitoxicity assays against Ustilago maydis were conducted using the copper-minus medium described in Example 5. Medium containing copper was prepared by adding CuCl2.2H2O to the copper-minus medium at 20 μM. Test compounds were dissolved in dimethylsulfoxide (DMSO) at 200 μg/mL and 1 μL aliquots were added to two wells of flat-bottomed 96-well microtiter plates. Copper-minus medium (100 μL) was added to one of the wells and copper-plus medium to the second well. Control wells, included for each medium, received 1 uL DMSO and 100 μL of medium.
Ustilago maydis was grown in 50 mL potato dextrose broth with shaking at 25° C. for 24 h. A 10 mL aliquot of the culture was centrifuged at 2000 rpm for 2 min, resuspended in 10 mL of sterile Chelex 100-treated water, and centrifuged again. The spores were resuspended in copper-minus medium, and the suspension adjusted to a concentration of 1×10^5 spores per mL. Microtiter plate wells containing test compound of DMSO (control) as described above were inoculated with 100 μL of this spore suspension and the plates incubated at 25° C. for 48 h before assessing fungal growth by measuring light scattering in a NepheloStar plate reader. Growth inhibition was determined by comparing growth in the presence of test compound with growth in control wells lacking test compound.
Results for growth inhibition by test compounds at 1 μg/mL in copper-plus medium (“% Inhn Plus Copper Observed”) were compared with predicted results (“% Inhn Plus Copper Predicted”) that were calculated using the formula set forth by S. R. Colby in Weeds 1967, 15, 20-22 based on results obtained for the same compounds in copper-minus medium (“% Inhn Minus Copper Observed”) and the inhibition attributed to copper chloride alone, as determined by comparing growth in copper-minus and copper-plus media without any test compound. Results illustrate that hydrazones and copper produce a synergistic fungitoxic effect towards Ustilago maydis.

The test system of data set [2] is Septoria tritici isolate USA-184. The experiment in a line: In vitro fungitoxicity (growth inhibition) against Septoria tritici in copper-minus and copper-plus medium. The data set is classed as cell-based. The conditions noted are these: CuCl2 1 μM without test compound. How it is done:
In vitro fungitoxicity assays against Septoria tritici were conducted using the copper-minus medium described in Example 5. Medium containing copper was prepared by adding CuCl2.2H2O to the copper-minus medium at 2 μM. Test compounds were dissolved in dimethylsulfoxide (DMSO) at 10 μg/mL and 1 μL aliquots were added to two wells of flat-bottomed 96-well microtiter plates. Copper-minus medium (100 μL) was added to one of the wells and copper-plus medium to the second well. Control wells, included for each medium, received 1 uL DMSO and 100 μL of medium.
Septoria tritici isolate USA-184 was grown on potato dextrose agar at 18° C. under black lights for 3 days. A loopful of spores was transferred from the culture to a 15 mL tube containing 5 mL of sterile Chelex-treated water. The spores were centrifuged at 2000 rpm for 2 min, resuspended in 10 mL water, and centrifuged again. […] Microtiter plate wells containing test compound of DMSO (control) as described above were inoculated with 100 μL of this spore suspension and the plates incubated at 25° C. for 90 h before assessing fungal growth by measuring light scattering in a NepheloStar plate reader. Growth inhibition was determined by comparing growth in the presence of test compound with growth in control wells lacking test compound. […]

In data set [3] the test system is Leptosphaeria nodorum (LEPTNO). The experiment in a line: In vitro fungitoxicity (growth inhibition) against Leptosphaeria nodorum in copper-minus and copper-plus medium. The data set is classed as cell-based. The settings on record: 0.05 μg/mL, 72 h. How it is done: In vitro fungitoxicity assays against Leptosphaeria nodorum (LEPTNO) were conducted using the liquid growth medium described by Coursen and Sisler (American Journal of Botany 1960, 47, 541-549) except that copper micronutrient, normally included as CuSO4, was omitted. The medium, termed “copper-minus”, was prepared by dissolving 10 g glucose, 1.5 g K2HPO4, 2 g KH2PO4 and 1 g (NH4)2SO4 in 1 liter of deionized water and treating the solution with 0.5 g Chelex 100 resin (Bio-Rad Analytical grade, 50-100 mesh, sodium form, cat#142-2822) by stirring at room temperature for 1 h. MgSO4.7H2O (0.5 g) was added, and stirring was continued for a further hour. Trace elements (minus CuSO4), and vitamins described by Coursen and Sisler were added from concentrated stock solutions and the entire medium was sterilized by filtration. Medium containing copper was prepared by adding CuCl2.2H2O to the copper-minus medium at 20 μM. […]
LEPTNO was grown on potato dextrose agar in 9 cm diameter petri dishes for 7 days. […] Microtiter plates were inoculated with 100 μL of this spore suspension and the plates incubated at 25° C. for 72 h before assessing fungal growth by measuring light scattering in a NepheloStar plate reader. Growth inhibition was determined by comparing growth in the presence of test compound with growth in control wells lacking test compound. […]

In a further data set the test system is Phytophthora infestans. The format is in vivo, Phytophthora infestans on tomato plant. The conditions noted are these: 50 ppm hydrazone with 50 μM CuCl2.2H2O, applied 24 h before inoculation, assessed 7 days after inoculation, tomato.

On to `O=C(NN=Cc1ccccc1O)c1ccccc1O` [o-hydroxybenzaldehyde-N-salicyloylhydrazone], for which the antimicrobial activity entry in data set [1] is given as “Antimicrobial activity has been reported”.
For the molecule `O=C(N/N=C/c1c(O)cccc1Cl)c1ccc([N+](=O)[O-])cc1` [Compound 50], the “% Inhn Plus copper Predicted” value in the data set on Phytophthora capsici is given as 5.1%. In addition, the “% Inhn. Plus copper Predicted” value in the data set with Ustilago maydis is recorded as 20.4%.
As for `O.O.[Cl][Cu][Cl]` [CuCl2, CuCl2.2H2O, reference compound], the “% Inhn, copper chloride alone” value with Phytophthora capsici (CuCl2 50 uM without test compound, across experiments) was 4.5 ± 7.9%. Further, in the data set on Ustilago maydis (CuCl2 10 μM without test compound), the “% Inhn., copper chloride alone” value stood at 11.9%. For the same molecule, the entries for the “% Inhibition, copper chloride alone” value in data set [2] and in data set [2] (listed as copper chloride) were 0% and “no effect on growth”, respectively.
As for `Cc1ccc(C(=O)N/N=C/c2ccc(Cl)c(Cl)c2O)c(O)c1` [Compound 20], in the data set with Phytophthora capsici, the “% Inhn Plus copper Predicted” value is 4.5%. The “% Inhn. Plus copper Predicted” value in the data set on Ustilago maydis is recorded as 69.6%.
Regarding `O=C(N/N=C/c1c(Cl)ccc(Cl)c1O)c1cccc(Cl)c1` [Compound 25], the “% Inhn Plus copper Predicted” value in the data set with Phytophthora capsici is recorded as 4.5%. Further, the “% Inhn. Plus copper Predicted” value in the data set on Ustilago maydis is 14.7%.
`O=C(N/N=C/c1cc(Cl)c(Cl)cc1O)c1ccccc1` [Compound 5] came in with a melting point of 206 to 208 °C. For the same molecule, the “LEPTNO % Inhn. Plus Copper Observed” value in data set [3] (copper-plus medium (CuCl2, 10 μM)) came out at 97.8%. The inhibition of growth at 0.05 µg/mL in data set [3] (Parastagonospora nodorum, copper-minus medium, read-out: LEPTNO % Inhn. Minus Copper Observed) turned out to be 0.1%. Besides, in the data set on Phytophthora infestans, the “TLB % Control” value is on record as 66.1%.
For the molecule `O=C(N/N=C/c1cccc(Cl)c1O)c1cccc(Cl)c1` [Compound 58], the “% Inhn Plus copper Predicted” value with Phytophthora capsici is on record as 13.2%. Also, in the data set with Ustilago maydis, the “% Inhn. Plus copper Predicted” value is listed as 42.1%.

As a reminder, the melting point is the temperature, or range, at which the solid turns liquid.
